From patent US11591355B2 (Peloton Therapeutics, Inc., priority 2017, dated 2023)

target: T1, Human CD73 (Homo sapiens, UniProt P21589); assay: CD73 Enzyme Assay; type: biochemical; conditions: not given
T1 construct: purchased R&D Systems; host or cells: CHO cells
T1 sequence (P21589 27-549): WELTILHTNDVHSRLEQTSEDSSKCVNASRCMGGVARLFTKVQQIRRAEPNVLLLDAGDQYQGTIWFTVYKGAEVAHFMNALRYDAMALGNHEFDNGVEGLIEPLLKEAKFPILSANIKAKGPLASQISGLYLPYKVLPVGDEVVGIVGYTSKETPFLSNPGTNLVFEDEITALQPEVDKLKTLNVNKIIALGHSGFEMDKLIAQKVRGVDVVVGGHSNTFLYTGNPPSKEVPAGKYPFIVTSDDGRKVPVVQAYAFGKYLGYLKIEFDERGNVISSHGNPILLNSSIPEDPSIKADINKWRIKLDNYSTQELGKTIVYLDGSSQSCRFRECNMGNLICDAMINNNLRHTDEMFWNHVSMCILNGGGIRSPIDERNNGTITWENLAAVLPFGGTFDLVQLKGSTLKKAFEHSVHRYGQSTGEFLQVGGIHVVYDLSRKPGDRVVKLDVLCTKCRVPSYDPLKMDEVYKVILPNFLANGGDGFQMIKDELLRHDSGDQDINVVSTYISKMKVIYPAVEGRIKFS

| Compound | IC50 [nM] |
| --- | --- |
| O=P(COC[C@H]1O[C@@H](n2ccc3c(NC4CCCC4)nc(Cl)nc32)[C@H](O)[C@@H]1O)(Oc1ccc(F)cc1)Oc1ccc(F)cc1 [Compound 227, (2R,3S,4R,5R)-2-[bis (4-fluorophenoxy)-phosphorylmethoxy-methyl]-5-[2-chloro-4-(cyclopentylamino)-pyrrolo[2,3-d]-pyrimidin-7-yl]tetra-hydrofuran-3,4-diol] | > 1000 |

same assay, conditions: 0.25 nM hCD73, 25 μM AMP, kinetic read at 360 nm; read-out: CD73 Enzyme Assay IC50

| IC50 [nM] | Compound |
| --- | --- |
| > 1000 | O=P(O)(O)COC[C@H]1O[C@@H](n2cnc3c(NCc4ccccc4)nc(C4CC4)nc32)[C@H](O)[C@@H]1O [Compound 39, [(2R,3S,4R,5R)-5-[6-(benzylamino)-2-cyclopropyl-purin-9-yl]-3,4-dihydroxy-tetrahydrofuran-2-yl]-methoxymethyl phos-phonic acid] |
| > 1000 | CC(C)(C)Nc1ncnc2c1ncn2[C@@H]1O[C@H](COCP(=O)(O)O)[C@@H](O)[C@H]1O [Compound 33, [(2R,3S,4R,5R)-5-[6-(tert-butylamino)purin-9-yl]-3,4-dihydroxy-tetrahydrofuran-2-yl]-methoxymethylphos-phonic acid] |
| 100 to 1000 | CNc1nc(C#N)nc2c1ccn2[C@@H]1O[C@H](COCP(=O)(O)O)[C@@H](O)[C@H]1O [Compound 118, [(2R,3S,4R,5R)-5-[2-cyano-4-(methyl-amino)pyrrolo[2,3-d]-pyrimidin-7-yl]-3,4-dihydroxy-tetrahydro-furan-2-yl]methoxy-methylphosphonic acid] |
| > 1000 | O=P(O)(O)COC[C@H]1O[C@@H](c2scc3c(N4CCCC4)nc(O)nc23)[C@H](O)[C@@H]1O [Compound 302] |
| > 1000 | O=c1c2ncn([C@@H]3O[C@H](COCP(=O)(O)O)[C@@H](O)[C@H]3O)c2ncn1Cc1ccccc1 [Compound 42, [(2R,3S,4R,5R)-5-(1-benzyl-6-oxo-purin-9-yl)-3,4-dihydroxy-tetrahydrofuran-2-yl]-methoxymethylphos-phonic acid] |
| > 1000 | CCNc1ncnc2c1ncn2[C@@H]1O[C@H](COCP(=O)(O)O)[C@@H](O)[C@H]1O [Compound 17, [(2R,3S,4R,5R)-5-[6-(ethylamino)purin-9-yl]-3,4-dihydroxy-tetrahydrofuran-2-yl]-methoxymethylphos-phonic acid] |
| > 1000 | O=P(O)(O)COC[C@H]1O[C@@H](n2cnc3c(NCc4ccccn4)ncnc32)[C@H](O)[C@@H]1O [Compound 19, [(2R,3S,4R,5R)-3,4-dihydroxy-5-[6-(2-pyridylmethylamino)-purin-9-yl]tetrahydro-furan-2-yl]methoxy-methylphosphonic acid] |
| > 1000 | O=P(O)(O)COC[C@H]1O[C@@H](n2cnc3c(NC4CC4)ncnc32)[C@H](O)[C@@H]1O [Compound 24, [(2R,3S,4R,5R)-5-[6-(cyclopropylamino)-purin-9-yl]-3,4-dihydroxy-tetrahydro-furan-2-yl]methoxy-methylphosphonic acid] |
| < 10 | O=P(O)(O)CP(=O)(O)OC[C@H]1O[C@@H](n2cnc3c(NC4CCCC4)nc(Cl)nc32)[C@H](O)[C@@H]1O [Compound 282, [[(2R,3S,4R,5R)-5-[2-chloro-6-(cyclopentyl-amino)purin-9-yl]-3,4-dihydroxy-tetrahydro-furan-2-yl]methoxy-hydroxy-phosphoryl]-methylphosphonic acid] |
| 100 to 1000 | CC(C)(C)C(=O)OCOP(=O)(CS(=O)(=O)C[C@H]1O[C@@H](n2ccc3c(NC4CCCC4)nc(Cl)nc32)[C@H](O)[C@@H]1O)OCOC(=O)C(C)(C)C [Compound 165, (((((((2S,3S,4R,5R)-5-(2-chloro-4-(cyclopentylamino)-7H-pyrrolo[2,3-d]pyrimidin-7-yl)-3,4-dihydroxytetrahydrofuran-2-yl)methyl)sulfonyl)methyl)phosphoryl)bis(oxy))bis(methylene) bis(2,2-dimethylpropanoate)] |
| > 1000 | C[C@@H](Nc1nc(Cl)nc2c1ncn2[C@@H]1O[C@H](COCP(=O)(O)O)[C@@H](O)[C@@]1(C)O)c1ccccc1 [Compound 216, [(2R,3R,4R,5R)-5-[2-chloro-6-[[(1R)-1-phenylethyl]amino]-purin-9-yl]-3,4-dihydroxy-4-methyl-tetrahydrofuran-2-yl]methoxymethyl-phosphonic acid] |
| > 1000 | O=P(O)(O)C(SC[C@H]1O[C@@H](n2cnc3c(NCc4ccccc4)ncnc32)[C@H](O)[C@@H]1O)c1ccccc1 (stereo partly drawn) [Compound 149, [[(2S,3S,5R)-5-[6-(benzylamino)purin-9-yl]-3,4-dihydroxy-tetrahydrofuran-2-yl]methylsulfanyl-phenylmethyl]phos-phonic acid] |
| 100 to 1000 | O=P(O)(O)COC[C@H]1O[C@@H](n2ccc3c(N[C@H](CO)c4ccccc4)nc(Cl)nc32)[C@H](O)[C@@H]1O [Compound 217, [(2R,3S,4R,5R)-5-[2-chloro-4-[[(1S)-2-hydroxy-1-phenyl-ethyl]amino]pyrrolo-[2,3-d]pyrimidin-7-yl]-3,4-dihydroxy-tetrahydrofuran-2-yl]methoxymethyl-phosphonic acid] |
| > 1000 | CC(C)N(C)c1ncnc2c1ncn2[C@@H]1O[C@H](COCP(=O)(O)O)[C@@H](O)[C@H]1O [Compound 31] |
| > 1000 | O=P(O)(O)COC[C@H]1O[C@@H](n2cnc3c(Nc4ccccc4)ncnc32)[C@H](O)[C@@H]1O [Compound 30, [(2R,3S,4R,5R)-5-(6-anilinopurin-9-yl)-3,4-dihydroxy-tetrahydro-furan-2-yl]methoxy-methylphosphonic acid] |
| > 1000 | Nc1ncnc2c1ncn2[C@@H]1O[C@H](COCP(=O)(O)O)[C@@H](O)[C@H]1O [Compound 2, [(2R,3S,4R,5R)-5-(6-aminopurin-9-yl)-3,4-dihydroxy-tetrahydrofuran-2-yl]methoxymethyl-phosphonic acid] |
| > 1000 | CNc1nc(NCc2ccccc2)c2ncn([C@@H]3O[C@H](COCP(=O)(O)O)[C@@H](O)[C@H]3O)c2n1 [Compound 5, [(2R,3S,4R,5R)-5-[6-(benzylamino)-2-(methylamino)purin-9-yl]-3,4-dihydroxy-tetrahydrofuran-2-yl]methoxymethyl-phosphonic acid] |
| > 1000 | O=P(COC[C@H]1O[C@@H](n2ccc3c(NC4CCCC4)nc(Cl)nc32)[C@H](O)[C@@H]1O)(OCC(F)(F)F)OCC(F)(F)F [Compound 226, (2R,3S,4R,5R)-2-[bis(2,2,2-trifluoro-ethoxy)phosphoryl-methoxymethyl]-5-[2-chloro-4-(cyclopentyl-amino)pyrrolo[2,3-d]-pyrimidin-7-yl]tetra-hydrofuran-3,4-diol] |
| > 1000 | N#Cc1cccc(CNc2ncnc3c2ncn3[C@@H]2O[C@H](COCP(=O)(O)O)[C@@H](O)[C@H]2O)c1 [Compound 58, [(2R,3S,4R,5R)-5-[6-[(3-cyanophenyl)-methylamino]purin-9-yl]-3,4-dihydroxy-tetrahydrofuran-2-yl]-methoxymethylphos-phonic acid] |
| > 1000 | O=P(O)(O)COC[C@H]1O[C@@H](n2cnc3c(NCc4cccnc4)ncnc32)[C@H](O)[C@@H]1O [Compound 27, [(2R,3S,4R,5R)-3,4-dihydroxy-5-[6-(3-pyridylmethylamino)-purin-9-yl]tetrahydro-furan-2-yl]methoxy-methylphosphonic acid] |
| 100 to 1000 | O=P(O)(O)COC[C@H]1O[C@@H](n2cnc3c(NC4CCC4)ncnc32)[C@H](O)[C@@H]1O [Compound 34, [(2R,3S,4R,5R)-5-[6-(cyclobutylamino)-purin-9-yl]-3,4-dihydroxy-tetrahydro-furan-2-yl]methoxy-methylphosphonic acid] |
